Assay results reported in patent US12415832B2, “B-catenin/B-cell Lymphoma 9 protein-protein interaction inhibiting peptidomimetics” (University of South Florida, priority 2019, dated 2025).
Read-outs that look alike come from different tables or passages of the source.

What was measured:
[1] = system: A549 cell; format: cell-based; conditions: 72 h
[2] = target: T1, β-catenin (Homo sapiens, UniProt P35222); assay: FP assay, binding of peptides with β-catenin (Kd); conditions: for Kd: fluorescence polarization, 50 nM FITC labeled peptide, 1×PBS; for decrease in binding affinity relative to 2: Ala substitution
T1 sequence (P35222 1-781): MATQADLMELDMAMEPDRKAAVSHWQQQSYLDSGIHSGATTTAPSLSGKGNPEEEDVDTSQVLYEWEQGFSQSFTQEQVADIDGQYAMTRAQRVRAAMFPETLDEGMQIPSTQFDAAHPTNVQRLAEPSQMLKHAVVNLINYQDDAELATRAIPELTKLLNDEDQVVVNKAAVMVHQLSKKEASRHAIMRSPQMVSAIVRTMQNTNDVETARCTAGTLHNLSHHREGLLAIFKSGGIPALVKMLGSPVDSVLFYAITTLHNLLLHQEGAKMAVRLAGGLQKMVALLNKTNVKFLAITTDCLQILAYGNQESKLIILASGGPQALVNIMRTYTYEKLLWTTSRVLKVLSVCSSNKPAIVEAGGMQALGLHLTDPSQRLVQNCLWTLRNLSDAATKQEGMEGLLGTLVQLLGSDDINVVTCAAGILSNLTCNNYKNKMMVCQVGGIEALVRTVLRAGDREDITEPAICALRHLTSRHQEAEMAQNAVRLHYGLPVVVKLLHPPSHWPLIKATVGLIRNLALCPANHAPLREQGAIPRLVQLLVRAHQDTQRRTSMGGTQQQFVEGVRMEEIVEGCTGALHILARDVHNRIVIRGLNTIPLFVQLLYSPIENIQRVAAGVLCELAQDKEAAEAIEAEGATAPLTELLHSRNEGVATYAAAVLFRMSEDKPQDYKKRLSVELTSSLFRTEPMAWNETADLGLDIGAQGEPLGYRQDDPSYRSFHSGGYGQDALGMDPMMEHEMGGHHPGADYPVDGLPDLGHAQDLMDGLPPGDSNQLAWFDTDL

[3] = system: Wnt/β-catenin signaling transactivation (TOPFlash); assay: Wnt-responsive TOPFlash luciferase reporter assay in SW480 cells; conditions: for IC50: read-out: TOPFlash luciferase IC50 (estimated), 24 h
Excerpt: Wnt-specific TOPFlash/FOPFlash luciferase reporter assays were used to evaluate the effects of these compounds on β-catenin-dependent transcription. For the TOPFlash reporter construct, the firefly luciferase reporter gene was placed downstream of three wild-type Tcf binding sites. For the FOPFlash reporter construct, the firefly luciferase reporter gene was place downstream of three mutant Tcf binding sites. The high expression of firefly luciferase in TOPFlash assays was controlled by tandem Tcf binding sites. The renilla luciferase reporter construct (pCMV-RL) was used as the internal control to normalize luciferase reporter signals and eliminate systematic errors such as cell viability, transfection effect, etc.
SW480 cells were co-transfected with 60 ng of the TOPFlash or FOPFlash firefly luciferase reporter gene and 40 ng of renilla luciferase pCMV-RL normalization reporter. Cells were cultured in DMEM and 10% FBS at 37° C. for 24 h, and different concentrations of inhibitors or DMSO were added. After 24 h, the luciferase reporter activity was measured using the Dual-Glo system (E2940, Promega). Normalized luciferase activity in response to the treatment with inhibitors was compared with that obtained from the cells treated with DMSO. Experiments were performed in triplicate.

[4] = target: T2, β-catenin/BCL9 PPI (Homo sapiens, UniProt P35222); assay: AlphaScreen competitive inhibition assay of β-catenin/BCL9 PPI; format: binding; conditions: for IC50 / Ki: AlphaScreen, mean ± SD; for IC50: 5 nM biotinylated BCL9, 40 nM His6-tagged FL-β-catenin; for Ki: Ki derived from IC50 by method of Nikolovska-Coleska et al.
T2 construct: 40 nM His6-tagged FL-β-catenin
T2 sequence (P35222 1-781): T1 sequence (P35222 1-781)
Protocol: For the competitive inhibition assays of β-catenin/BCL9 PPI, the negative control (equivalent to 0% inhibition) refers to 5.0 nM biotinylated BCL9, 40 nM His6-tagged FL-β-catenin, and 10 μg/mL of donor and acceptor beads in a final volume of 25 μL of assay buffer, but no tested inhibitor present. The positive control (equivalent to 100% inhibition) refers to 5.0 nM biotinylated BCL9 and 10 μg/mL of donor and acceptor beads in a final volume of 25 μL of assay buffer. For the β-catenin/BCL9 assay, 5 nM biotinylated BCL9 and 40 nM His6-tagged FL-β-catenin were incubated in assay buffer at 4° C. for 30 min. Different concentrations of the tested inhibitor were added and incubated in 20 μL of assay buffer at 4° C. for another 1 h. All of the above assay plates were covered and gently mixed on an orbital shaker. The donor and acceptor beads were then added to the plates to a final concentration of 10 μg/mL in 25 μL of assay buffer. The mixture was incubated for 1 h at 4° C. before detection. The IC50 value was determined by nonlinear least-squares analysis of GraphPad Prism 5.0. The Ki values were derived from the IC50 values using a method reported by Nikolovska-Coleska et al. The assays were conducted under the conditions reported by Nikolovska-Coleska et al.'s equation for determining the Ki values. All of the experiments were performed in triplicate. The results were expressed as mean±standard deviation.

[5] = system: SW480 cell; format: cell-based; conditions: for IC50: 72 h
Protocol: Colorectal cancer cell lines SW480 were seeded in 96-well plates at 5×10^3 cells/well, maintained overnight at 37° C., and incubated in the presence of inhibitors at various concentrations. Cell viability was monitored after 72 h using a freshly prepared mixture of one-part phenazine methosulfate (PMS, Sigma) solution (0.92 mg/mL) and 19 parts MTs agent (3-(4,5-dimethylthiazol-2-yl)-5-(3-carboxymethoxyphenyl)-2-(4-sulfophenyl)-2H-tetrazolium, inner salt, Promega) solution (2 mg/mL). Cells were incubated in 10 μL of this solution at 37° C. for 3 h, and A490 was measured. The effect of each compound is expressed as the concentration required to reduce A490 by 50% (IC50) relative to vehicle-treated cells. Experiments were performed in triplicate and repeated for three times.

[6] = system: β-catenin/BCL9 PPI; assay: Co-immunoprecipitation in HCT116 cells; format: cell-based; conditions: 24 h
Protocol: β-Catenin signaling hyperactive HCT116 cancer cells at […] were treated with different concentrations of the inhibitor for 24 h. Cells were then lysed in buffer containing 50 mM Tris, pH 7.4, 150 mM NaCl, 1% Nonidet […], 2 mM EDTA, and protease inhibitors. The cell lysates were then preadsorbed to A/G plus agarose (sc-2003, Santa Cruz Biotechnology) at 4° C. for 1 h. Preadsorbed lysates were incubated with a specific primary antibody against […] (610153, BD Biosciences) overnight at 4° C. A/G plus agarose was then added to the lysate mixture and incubated for 3 h. The beads were washed four times with the lysis buffer at 4° C. The bound protein was eluted by boiling in the SDS sample buffer and loaded onto 8% SDS polyacrylamide gel for electrophoretic analysis. Separated proteins were transferred onto nitrocellulose membranes for immunoblot analysis. The antibodies against BCL9 (ab37305, Abcam), β-catenin (610153, BD Biosciences), and […] (sc-55529, Santa Cruz Biotechnology, Inc.) were incubated with the membranes, respectively. IRDye 680LT goat anti mouse IgG (827-11080, LiCOR) and IRDye 800CW goat anti rabbit IgG (926-32211, LiCOR) were used as the secondary antibodies. The images were detected by the Odyssey Infrared Imaging System (LiCOR). Experiments were performed in duplicate.

Molecule	IC50 [1] [nM]	Kd [2] [nM]	IC50 [3] [nM]	IC50 [4] [nM]	Ki [4] [nM]	IC50 [5] [nM]	decrease in binding affinity relative to 2 [2]	disruption of β-catenin/BCL9 PPI in cells (co-IP) [6]	improvement of Kd compared to the peptide 1 [2] [fold]	improvement of IC50 compared to the peptide 1 [4] [fold]	improvement of Ki compared to the peptide 1 [4] [fold]	effect on SW480 cell proliferation, in words ([5]; MTS)	TOPFlash luciferase activity, result in words [3]	IC50 ([5]; SW480 cell, hyperactive β-catenin signaling, read-out: MTS IC50 ± SD) [nM]
CCC(C)[C@@H](CN(CC(=O)N[C@@H](CC(C)C)CN(CC(=O)N[C@@H](CC(C)C)CN(CC(N)=O)S(=O)(=O)Cc1ccccc1)S(=O)(=O)CC(C)C)S(C)(=O)=O)NC(=O)CN(C[C@H](CCCNC(=N)N)NC(=O)CN(C[C@H](CC(C)C)NC(=O)CN(C[C@@H](NC(=O)CN(C[C@H](CC(C)C)NC(=O)CN(C[C@H](CCCNC(=N)N)NC(=O)CN(C[C@H](CCCNC(=N)N)NC(=O)CN(C[C@H](CCC(=O)O)NC(C)=O)S(=O)(=O)CCN)S(C)(=O)=O)S(C)(=O)=O)S(=O)(=O)CCN)C(C)O)S(=O)(=O)CC(C)C)S(=O)(=O)CCN)S(=O)(=O)CC(C)C (some centres unmarked) [Peptide 2]	39900 ± 4750	430	35400	740	640	12500 ± 2860	–	–	–	–	–	–	–	–
CCC(C)[C@@H](CN(CC(=O)N[C@@H](CC(C)C)CN(CC(=O)N[C@@H](CC(C)C)CN(CC(N)=O)S(=O)(=O)Cc1ccccc1)S(=O)(=O)CC(C)C)S(C)(=O)=O)NC(=O)CN(C[C@H](CCCNC(=N)N)NC(=O)CN(C[C@H](CC(C)C)NC(=O)CN(C[C@@H](NC(=O)CN(C[C@H](CC(C)C)NC(=O)CN(C[C@H](CCCNC(=N)N)NC(=O)CN(C[C@H](CCCNC(=N)N)NC(=O)CN(C[C@H](CCC(=O)O)NC(C)=O)S(C)(=O)=O)S(C)(=O)=O)S(C)(=O)=O)S(=O)(=O)CCN)C(C)O)S(=O)(=O)CC(C)C)S(=O)(=O)CCN)S(=O)(=O)CC(C)C (some centres unmarked) [Peptide 3]	43700 ± 3620	860	26500	1040 ± 210	920 ± 170	12800 ± 2900	about 1.5 fold	–	–	–	–	–	–	–
CCC(C)[C@@H](CN(CC(=O)N[C@@H](CC(C)C)CN(CC(=O)N[C@@H](CC(C)C)CN(CC(N)=O)S(=O)(=O)Cc1ccccc1)S(=O)(=O)CC(C)C)S(C)(=O)=O)NC(=O)CN(C[C@H](CCCNC(=N)N)NC(=O)CN(C[C@H](CC(C)C)NC(=O)CN(C[C@@H](NC(=O)CN(C[C@H](CC(C)C)NC(=O)CN(C[C@H](CCCNC(=N)N)NC(=O)CN(C[C@H](C)NC(=O)CN(C[C@H](CCC(=O)O)NC(C)=O)S(=O)(=O)CCN)S(C)(=O)=O)S(C)(=O)=O)S(=O)(=O)CCN)C(C)O)S(=O)(=O)CC(C)C)S(=O)(=O)CCN)S(=O)(=O)CC(C)C (some centres unmarked) [Peptide 4]	43200 ± 5600	820	20600	1100 ± 140	980 ± 110	16400 ± 4400	about 1.5 fold	disrupted the β-catenin/BCL9 PPI in a dose-dependent manner	–	–	–	–	–	–
CCC(C)[C@@H](CN(CC(=O)N[C@@H](CC(C)C)CN(CC(=O)N[C@@H](CC(C)C)CN(CC(N)=O)S(=O)(=O)Cc1ccccc1)S(=O)(=O)CC(C)C)S(C)(=O)=O)NC(=O)CN(C[C@H](CCCNC(=N)N)NC(=O)CN(C[C@H](C)NC(=O)CN(C[C@@H](NC(=O)CN(C[C@H](CC(C)C)NC(=O)CN(C[C@H](CCCNC(=N)N)NC(=O)CN(C[C@H](CCCNC(=N)N)NC(=O)CN(C[C@H](CCC(=O)O)NC(C)=O)S(=O)(=O)CCN)S(C)(=O)=O)S(C)(=O)=O)S(=O)(=O)CCN)C(C)O)S(=O)(=O)CC(C)C)S(=O)(=O)CCN)S(=O)(=O)CC(C)C (some centres unmarked) [Peptide 5]	230000 ± 27500	1970	–	2710	2430	132000 ± 18900	–	–	–	–	–	–	–	–
CC(=O)N[C@@H](CCC(=O)O)CN(CC(=O)N[C@@H](CCCNC(=N)N)CN(CC(=O)N[C@@H](CCCNC(=N)N)CN(CC(=O)N[C@@H](CC(C)C)CN(CC(=O)N[C@H](CN(CC(=O)N[C@@H](CC(C)C)CN(CC(=O)N[C@@H](CCCNC(=N)N)CN(CC(=O)N[C@@H](C)CN(CC(=O)N[C@@H](CC(C)C)CN(CC(=O)N[C@@H](CC(C)C)CN(CC(N)=O)S(=O)(=O)Cc1ccccc1)S(=O)(=O)CC(C)C)S(C)(=O)=O)S(=O)(=O)CC(C)C)S(=O)(=O)CCN)S(=O)(=O)CC(C)C)C(C)O)S(=O)(=O)CCN)S(C)(=O)=O)S(C)(=O)=O)S(=O)(=O)CCN (some centres unmarked) [Peptide 6]	150000 ± 19200	160	–	540	460	65400 ± 7060	–	–	~6	~3	~3	relatively weak activity	–	–
CCC(C)[C@@H](CN(CC(=O)N[C@@H](CC(C)C)CN(CC(=O)N[C@@H](C)CN(CC(N)=O)S(=O)(=O)Cc1ccccc1)S(=O)(=O)CC(C)C)S(C)(=O)=O)NC(=O)CN(C[C@H](CCCNC(=N)N)NC(=O)CN(C[C@H](CC(C)C)NC(=O)CN(C[C@@H](NC(=O)CN(C[C@H](CC(C)C)NC(=O)CN(C[C@H](CCCNC(=N)N)NC(=O)CN(C[C@H](CCCNC(=N)N)NC(=O)CN(C[C@H](CCC(=O)O)NC(C)=O)S(=O)(=O)CCN)S(C)(=O)=O)S(C)(=O)=O)S(=O)(=O)CCN)C(C)O)S(=O)(=O)CC(C)C)S(=O)(=O)CCN)S(=O)(=O)CC(C)C (some centres unmarked) [Peptide 7]	120000 ± 13600	700	–	1000 ± 100	890 ± 80	46600 ± 5570	about 1.5 fold	–	–	–	–	–	–	–
Ac-SQEQLEHRERSLQTLRDIQRMLF-NH2 [Peptide 1, reference compound]	> 200000	970	–	1280	1130	–	–	–	–	–	–	–	did not show any activity	> 200000
